In patent publication US9073935B2, “Substituted benzylspiroindolin-2-one analogs as positive allosteric modulators of the muscarinic acetylcholine receptor M1” (VANDERBILT UNIVERSITY, priority 2011, dated 2015):

Molecular target: T1, mAChR M1 (UniProt P11229)
T1 sequence (P11229 1-460): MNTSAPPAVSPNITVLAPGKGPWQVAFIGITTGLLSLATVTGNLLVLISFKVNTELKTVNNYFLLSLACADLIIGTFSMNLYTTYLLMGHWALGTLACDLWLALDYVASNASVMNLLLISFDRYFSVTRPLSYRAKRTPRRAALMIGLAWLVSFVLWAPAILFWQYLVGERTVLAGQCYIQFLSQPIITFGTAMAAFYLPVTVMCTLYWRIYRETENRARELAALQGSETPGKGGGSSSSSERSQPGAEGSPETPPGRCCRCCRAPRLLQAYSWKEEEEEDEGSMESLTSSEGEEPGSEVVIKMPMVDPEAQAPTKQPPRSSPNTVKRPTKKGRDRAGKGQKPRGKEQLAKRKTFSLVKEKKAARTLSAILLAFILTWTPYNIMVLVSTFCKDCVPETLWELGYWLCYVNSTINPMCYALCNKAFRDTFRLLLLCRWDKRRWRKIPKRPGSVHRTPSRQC
Test: mAChR M1 cell-based functional assay (calcium mobilization, potentiation of EC20 acetylcholine response)
Details: for Emax: % ACh maximum at 30 μM; for EC50: CHO-K1 cells expressing mAChR M1, increase in EC20 acetylcholine response, >10 μM estimated where no plateau in the curve
Protocol: Chinese hamster ovary (CHO-K1) cells stably expressing rat (r)M1 were purchased from the American Type Culture Collection and cultured according to their indicated protocol. […] To make stable rM2, hM2, rM3, hM4, and rM4 cell lines for use in calcium mobilization assays, these cells also were stably transfected with a chimeric G-protein (Gqi5) (provided by B. R. Conklin, University of California, San Francisco) using Lipofectamine 2000. rM1, hM1, rM3, hM3, rM5, and hM5 cells were grown in Ham's F-12 medium containing 10% heat-inactivated fetal bovine serum (FBS), 20 mM HEPES, and 50 μg/mL G418 sulfate. rM2-Gqi5, hM2-Gqi5, and hM4-Gqi5 cells were grown in the same medium also containing 500 μg/mL Hygromycin B. Stable rM4-Gqi5 cells were grown in DMEM containing 10% heat-inactivated FBS, 20 mM HEPES, 400 μg/mL G418 sulfate, and 500 μg/mL Hygromycin B.
For high throughput measurement of agonist-evoked increases in intracellular calcium, CHO-K1 cells stably expressing muscarinic receptors were plated in growth medium lacking G418 and hygromycin at 15,000 cells/20 μL/well in Greiner 384-well black-walled, tissue culture (TC)-treated, clear-bottom plates (VWR). Cells were incubated overnight at 37° C. and 5% CO2. […] Compound master plates were formatted in an 11 point CRC format (1:3 dilutions) in 100% DMSO with a starting concentration of 10 mM using the BRAVO liquid handler (Agilent). Test compound CRCs were then transferred to daughter plates ([…]) using the Echo acoustic plate reformatter (Labcyte, Sunnyvale, Calif.) and then diluted into assay buffer (40 μL) to a 2× stock using a Thermo Fisher Combi (Thermo Fisher Scientific, Waltham, Mass.).
Calcium flux was measured using the Functional Drug Screening System (FDSS) 6000 (Hamamatsu Corporation, Tokyo, Japan) as an increase in the fluorescent static ratio. Compounds were applied to cells (20 μL, 2×) using the automated system of the FDSS 6000 at 4 s into the 300 s protocol and the data were collected at 1 Hz. […] Agonist activity was analyzed as a concentration-dependent increase in calcium mobilization upon compound addition. Positive allosteric modulator activity was analyzed as a concentration-dependent increase in the EC20 acetylcholine response. Antagonist activity was analyzed as a concentration-dependent decrease in the EC80 acetylcholine response. Concentration-response curves were generated using a four-parameter logistical equation in XLfit curve fitting software (IDBS, Bridgewater, N.J.) for Excel (Microsoft, Redmond, Wash.) or Prism (GraphPad Software, Inc., San Diego, Calif.).
The calcium mobilization assay was also used to determine “efficacy”. In the context of the assays carried out for the data in Table II, “efficacy” (% ACh at 30 μM) is defined as the maximal response in the calcium flux as determined by the sigmoidal curve fit of the concentration response curve, or in the absence of an acceptable curve fit, the response recorded at 30 μM test compound, stated as a percentage of the response elicited by a concentration of Ach that induces approximately 80% of a maximal (i.e. saturating) ACh response.
Substituted benzylspiroindolin-2-one analogs were synthesized as described above. Activity (EC50 and Emax) was determined in the mAChR M1 cell-based functional assay as described above and the data are shown in Table III. The compound number corresponds to the compound numbers used in Tables I and II.

SMILES | Emax | EC50
Cn1cc2c(-c3cc(F)c(CN4C(=O)C5(CCN(C(=O)OC(C)(C)C)C5)c5ccccc54)c(F)c3)cccc2n1 (stereo not shown) [Compound B76] | <30% | > 10 µM
CN1CCC2(CC1)C(=O)N(Cc1c(F)cc(-c3ccc4nn(C)cc4c3)cc1F)c1ccccc12 [Compound B77] | 26% | > 10 µM
CN1CCC2(CC1)C(=O)N(Cc1c(F)cc(-c3ccc4c(c3)CC(=O)N4)cc1F)c1ccccc12 [Compound B78] | 38% | 6.6 µM
CN1CCC2(CC1)C(=O)N(Cc1c(F)cc(-c3cccc4nn(C)cc34)cc1F)c1ccccc12 [Compound B79] | <30% | > 10 µM
CN1CCCC12C(=O)N(Cc1c(F)cc(-c3cccc4nn(C)cc34)cc1F)c1ccccc12 (stereo not shown) [Compound B80] | <30% | > 10 µM
